From the text: Silver ion solubility, as referred to herein, is a value derived from a solubility product (Ksp) in water at 25 degrees centigrade, a well known parameter that is reported in numerous sources.

SMILES | Silver Ion Solubility [Ag+]
[Br][Ag] [Silver bromide] | Silver bromide 1 5.3 × 10−^13 7.3 × 10″^7 mol/L
[Cl][Ag] [Silver chloride] | 1.3 × 10″^5 mol/L
